Literature values in patent US8715648B2, “Method for treating obesity with anti-obesity formulations and omega 3 fatty acids for the reduction of body weight in cardiovascular disease patients (CVD) and diabetics” (Pivotal Therapeutics Inc., priority 2011, dated 2014).

Molecular target: CB1R (Homo sapiens, UniProt P21554)
Conditions: in vivo

Chain of CB1R (P21554 whole entry): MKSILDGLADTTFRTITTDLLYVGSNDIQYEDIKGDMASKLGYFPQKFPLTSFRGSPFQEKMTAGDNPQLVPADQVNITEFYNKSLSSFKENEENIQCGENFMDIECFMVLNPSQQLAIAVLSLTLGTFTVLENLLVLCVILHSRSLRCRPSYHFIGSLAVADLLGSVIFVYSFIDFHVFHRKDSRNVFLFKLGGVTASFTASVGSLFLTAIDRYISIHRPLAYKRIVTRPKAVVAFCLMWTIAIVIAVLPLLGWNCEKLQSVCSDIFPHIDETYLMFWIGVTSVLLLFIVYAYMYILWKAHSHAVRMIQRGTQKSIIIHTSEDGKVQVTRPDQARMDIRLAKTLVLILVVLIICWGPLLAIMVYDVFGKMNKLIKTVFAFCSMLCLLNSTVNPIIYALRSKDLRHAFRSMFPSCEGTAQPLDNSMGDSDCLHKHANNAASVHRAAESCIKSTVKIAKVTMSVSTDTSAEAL

CCNC1(C(N)=O)CCN(c2ncnc3c2nc(-c2ccccc2Cl)n3-c2ccc(Cl)cc2)CC1.Cl [CP-945,598]
Reason for failure of phase III clinical trials: psychiatric adverse reactions, including severe depression and anxiety
